For experiment [1], the target named is hGYS1 enzyme (recombinant hGYS1/GN1 protein) (Homo sapiens (Human), UniProt P13807). The experiment is described as follows: GYS1 coupled enzyme assay (PK/LDH). The experiment is classed as biochemical. The following applies: hGYS1/GN1 50 nM, UDP-Glucose 0.8 mM, G6P 1 mM; geometric mean of at least 2 runs.
The test system of experiment [2] is hGYS1 enzyme / glycogen synthesis in HeLa cells. Put plainly: GYS1 cell based assay (glycogen synthesis, Glucose-glo). On the set-up: species or system human. The following applies: 24 h incubation, 20 mM glucose, geometric mean of at least 2 runs. In outline:
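HeLa cells starved 24 h in medium containing only 1× Glutamax were plated onto compound in medium with 20 mM glucose (1% DMSO final) for 24 h, 37 °C, 5% CO2. Acid lysates were Tris-quenched, glucoamylase-digested (pH 5.3, 1 h, 37 °C) and read by Glucose-glo luminescence. IC50 came from Hill fits, as geometric mean of ≥2 runs.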

Experiment [3] has as its target hGYS2 enzyme (recombinant hGYS2/GN1 protein) (Homo sapiens (Human), UniProt P54840). Put plainly: GYS2 coupled enzyme assay (PK/LDH). Format: biochemical. To be noted: geometric mean of at least 2 assay runs on separate days, read-out: Avg_IC50. The method in brief:
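Recombinant hGYS2/GN1 (200 nM) with 2 mM UDP-glucose, 0.2% rabbit liver glycogen, 2 mM glucose-6-phosphate; UDP coupled via PK/LDH (2 mM PEP, 0.6 mM NADH). Buffer 50 mM Tris pH 7.5, 2 mM MgCl2, 100 mM KCl, 2.5% DMSO. A340 slope over 10 min; IC50 from Hill fit of duplicates.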

The values that follow come from patent US11814367B2, “Inhibitors of glycogen synthase 1 (GYS1) and methods of use thereof” (Maze Therapeutics, Inc., priority 2021, dated 2023).

Where only a bound is given, the exact number is not on record here.

hGYS1 enzyme (recombinant hGYS1/GN1 protein), sequence (P13807 whole entry): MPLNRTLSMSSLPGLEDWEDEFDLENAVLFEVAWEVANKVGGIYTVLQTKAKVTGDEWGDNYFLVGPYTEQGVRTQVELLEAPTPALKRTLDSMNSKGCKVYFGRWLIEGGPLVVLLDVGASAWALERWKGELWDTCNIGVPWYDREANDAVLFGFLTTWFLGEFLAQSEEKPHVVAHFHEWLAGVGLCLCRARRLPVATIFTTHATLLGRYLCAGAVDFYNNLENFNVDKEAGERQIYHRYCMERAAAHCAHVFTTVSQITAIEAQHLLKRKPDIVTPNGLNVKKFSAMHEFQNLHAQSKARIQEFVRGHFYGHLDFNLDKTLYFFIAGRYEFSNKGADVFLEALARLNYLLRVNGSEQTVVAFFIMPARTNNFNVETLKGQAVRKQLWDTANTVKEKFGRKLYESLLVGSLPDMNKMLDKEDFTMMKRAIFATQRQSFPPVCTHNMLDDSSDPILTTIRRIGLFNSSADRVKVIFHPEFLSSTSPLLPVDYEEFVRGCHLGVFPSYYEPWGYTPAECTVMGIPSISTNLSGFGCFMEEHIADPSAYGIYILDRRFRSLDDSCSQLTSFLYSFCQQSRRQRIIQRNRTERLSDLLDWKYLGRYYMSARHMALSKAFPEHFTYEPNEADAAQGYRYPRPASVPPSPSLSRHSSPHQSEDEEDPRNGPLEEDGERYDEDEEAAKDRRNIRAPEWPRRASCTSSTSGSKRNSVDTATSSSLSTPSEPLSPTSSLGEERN
hGYS1 enzyme (recombinant hGYS1/GN1 protein), sequence (P46976 whole entry partner): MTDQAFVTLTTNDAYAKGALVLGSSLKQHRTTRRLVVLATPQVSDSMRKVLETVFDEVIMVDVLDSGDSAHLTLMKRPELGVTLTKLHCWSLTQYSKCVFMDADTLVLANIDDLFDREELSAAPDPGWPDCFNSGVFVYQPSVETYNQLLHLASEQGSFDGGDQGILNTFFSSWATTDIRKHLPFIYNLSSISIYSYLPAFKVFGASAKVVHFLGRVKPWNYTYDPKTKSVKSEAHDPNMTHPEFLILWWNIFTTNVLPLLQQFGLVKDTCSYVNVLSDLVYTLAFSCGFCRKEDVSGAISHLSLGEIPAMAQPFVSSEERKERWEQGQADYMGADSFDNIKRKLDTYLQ
hGYS2 enzyme (recombinant hGYS2/GN1 protein), sequence (P54840 whole entry): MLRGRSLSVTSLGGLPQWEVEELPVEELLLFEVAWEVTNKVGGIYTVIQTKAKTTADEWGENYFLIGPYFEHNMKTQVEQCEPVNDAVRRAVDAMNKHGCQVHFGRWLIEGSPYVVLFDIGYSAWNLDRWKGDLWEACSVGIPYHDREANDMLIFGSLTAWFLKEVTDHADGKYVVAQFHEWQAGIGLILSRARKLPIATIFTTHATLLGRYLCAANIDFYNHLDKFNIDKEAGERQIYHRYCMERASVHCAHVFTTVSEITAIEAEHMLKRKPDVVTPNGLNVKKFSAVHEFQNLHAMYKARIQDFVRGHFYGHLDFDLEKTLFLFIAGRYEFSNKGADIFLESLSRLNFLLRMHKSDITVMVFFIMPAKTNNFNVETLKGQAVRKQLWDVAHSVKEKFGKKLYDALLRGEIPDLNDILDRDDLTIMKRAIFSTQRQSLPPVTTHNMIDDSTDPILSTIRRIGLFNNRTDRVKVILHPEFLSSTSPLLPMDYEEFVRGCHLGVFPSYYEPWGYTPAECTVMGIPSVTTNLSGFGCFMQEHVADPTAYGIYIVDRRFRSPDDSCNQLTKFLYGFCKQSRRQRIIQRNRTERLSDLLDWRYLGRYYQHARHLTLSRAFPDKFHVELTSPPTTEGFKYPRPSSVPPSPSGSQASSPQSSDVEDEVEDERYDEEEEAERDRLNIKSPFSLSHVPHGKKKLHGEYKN
hGYS2 enzyme (recombinant hGYS2/GN1 protein), sequence (P46976 whole entry partner): as the sequence (P46976 whole entry partner) above

Regarding `CC(C)c1ccc(C(NC(=O)[C@@H]2C[C@@H](F)CN2C(=O)Cc2cnn[nH]2)c2ccn[nH]2)cc1F` (single isomer, unassigned) [Compound 623, (2S,4R)-4-fluoro-N-[(R) or (S)-[3-fluoro-4-(propan-2-yl)phenyl](1H-pyrazol-5-yl)methyl]-1-[2-(1H-1,2,3-triazol-5-yl)acetyl]pyrrolidine-2-carboxamide], the IC50 in experiment [1] is 111 nM; in experiment [2] (Homo sapiens, HeLa, 24 h) it was 4070 nM; in experiment [3], > 100000 nM.

Take `Cc1cc(C(NC(=O)[C@@H]2C[C@@H](F)CN2C(=O)Cc2c(C)nn(C)c2C)c2cccnc2N)ccc1C(C)C` (single isomer, unassigned) [Compound 625, (2S,4R)-N-[(R) or (S)-(2-aminopyridin-3-yl)[3-methyl-4-(propan-2-yl)phenyl]methyl]-4-fluoro-1-[2-(1,3,5-trimethyl-1H-pyrazol-4-yl)acetyl]pyrrolidine-2-carboxamide]: the IC50 in experiment [1] was 139 nM; in experiment [2] (Homo sapiens, HeLa, 24 h), 1140 nM; in experiment [3], > 100000 nM.

`CC(C)c1ccc(C(NC(=O)[C@@H]2C[C@@H](F)CN2C(=O)Cc2ncco2)c2ccn[nH]2)nc1F` (single isomer, unassigned) [Compound 630, (2S,4R)-4-fluoro-N-[(S) or (R)-[6-fluoro-5-(propan-2-yl)pyridin-2-yl](1H-pyrazol-5-yl)methyl]-1-[2-(1,3-oxazol-2-yl)acetyl]pyrrolidine-2-carboxamide]: the IC50 in experiment [1] is 92 nM; in experiment [2] (Homo sapiens, HeLa, 24 h), 2130 nM; in experiment [3] it was > 100000 nM.

Take `CC(C)c1ccc(C(NC(=O)[C@@H]2C[C@@H](F)CN2C(=O)Cc2cnn[nH]2)c2ccn3cncc3c2)nc1F` (single isomer, unassigned) [Compound 631, (2S,4R)-4-fluoro-N-[(S) or (R)-[6-fluoro-5-(propan-2-yl)pyridin-2-yl]({imidazo[1,5-a]pyridin-7-yl})methyl]-1-[2-(1H-1,2,3-triazol-5-yl)acetyl]pyrrolidine-2-carboxamide]: the IC50 in experiment [1] is 176 nM; in experiment [2] (Homo sapiens, HeLa, 24 h), 13600 nM; in experiment [3], > 100000 nM.

`CC(C)c1ccc(C(NC(=O)[C@@H]2C[C@@H](F)CN2C(=O)Cc2cnn[nH]2)c2ccc3cn[nH]c3c2)nc1F` (single isomer, unassigned) [Compound 632, (2S,4R)-4-fluoro-N-[(S) or (R)-[6-fluoro-5-(propan-2-yl)pyridin-2-yl](1H-indazol-6-yl)methyl]-1-[2-(1H-1,2,3-triazol-5-yl)acetyl]pyrrolidine-2-carboxamide]: the IC50 was 13 nM in experiment [1], 660 nM in experiment [2] and > 100000 nM in experiment [3].

For `COc1cccc(C(NC(=O)[C@@H]2C[C@@H](F)CN2C(=O)Cc2cnn[nH]2)c2ccc(C(C)C)c(F)n2)c1` (single isomer, unassigned) [Compound 651, (2S,4R)-4-fluoro-N-[(S) or (R)-[6-fluoro-5-(propan-2-yl)pyridin-2-yl](3-methoxyphenyl)methyl]-1-[2-(1H-1,2,3-triazol-5-yl)acetyl]pyrrolidine-2-carboxamide], the IC50 is 77 nM in experiment [1]; 1570 nM in experiment [2] (Homo sapiens, HeLa, 24 h); > 100000 nM in experiment [3].

Take `CC(C)c1ccc(C(CC2CC2)NC(=O)[C@@H]2C[C@@H](F)CN2C(=O)Cc2cnn[nH]2)cc1F` (single isomer, unassigned) [Compound 653, (2S,4R)-N-[(1S) or (1R)-2-cyclopropyl-1-[3-fluoro-4-(propan-2-yl)phenyl]ethyl]-4-fluoro-1-[2-(1H-1,2,3-triazol-5-yl)acetyl]pyrrolidine-2-carboxamide]: the IC50 is 262 nM in experiment [1]; 3750 nM in experiment [2] (Homo sapiens, HeLa, 24 h); > 100000 nM in experiment [3].

With `CC(C)c1c(F)cc(C(NC(=O)[C@@H]2C[C@@H](F)CN2C(=O)Cc2cnn[nH]2)c2ccccc2)cc1F` (single isomer, unassigned) [Compound 667, (2S,4R)-N-[(S) or (R)-[3,5-difluoro-4-(propan-2-yl)phenyl](phenyl)methyl]-4-fluoro-1-[2-(1H-1,2,3-triazol-5-yl)acetyl]pyrrolidine-2-carboxamide], the IC50 was 23 nM in experiment [1]; 290 nM in experiment [2] (Homo sapiens, HeLa, 24 h); > 100000 nM in experiment [3].

For `CC(C)c1c(F)cc(C(NC(=O)[C@@H]2C[C@@H](F)CN2C(=O)Cn2ccnn2)c2ccccc2)cc1F` (single isomer, unassigned) [Compound 668, (2S,4R)-N-[(S) or (R)-[3,5-difluoro-4-(propan-2-yl)phenyl](phenyl)methyl]-4-fluoro-1-[2-(1H-1,2,3-triazol-1-yl)acetyl]pyrrolidine-2-carboxamide], the IC50 was 25 nM in experiment [1]; 320 nM in experiment [2] (Homo sapiens, HeLa, 24 h); > 100000 nM in experiment [3].

As for `O=C(NC(c1ccccc1)c1ccc(C2CCC2)c(F)c1)[C@@H]1C[C@@H](F)CN1C(=O)Cc1cnn[nH]1` (single isomer, unassigned) [Compound 674, (2S,4R)-N-[(S) or (R)-(4-cyclobutyl-3-fluorophenyl) (phenyl)methyl]-4-fluoro-1-[2-(1H-1,2,3-triazol-5-yl)acetyl]pyrrolidine-2-carboxamide], the IC50 in experiment [1] is 96 nM; in experiment [2] (Homo sapiens, HeLa, 24 h) it was 710 nM; in experiment [3], > 100000 nM.

Consider `O=C(NC(c1ccccc1)c1ccc(C2CCC2)c(F)c1)[C@@H]1C[C@@H](F)CN1C(=O)Cn1cnnn1` (single isomer, unassigned) [Compound 675, (2S,4R)-N-[(S) or (R)-(4-cyclobutyl-3-fluorophenyl) (phenyl)methyl]-4-fluoro-1-[2-(1H-1,2,3,4-tetrazol-1-yl)acetyl]pyrrolidine-2-carboxamide], for which the IC50 in experiment [1] is 101 nM; in experiment [2] (Homo sapiens, HeLa, 24 h), 1130 nM; in experiment [3], > 100000 nM.

With `CCC(C)c1ccc(C(NC(=O)[C@@H]2C[C@@H](F)CN2C(=O)Cc2cnn[nH]2)c2ccccc2)cc1F` (single isomer, unassigned) [Compound 676, (2S,4R)-N-[(R) or (S)-{4-[(2R) or (2S)-butan-2-yl]-3-fluorophenyl}(phenyl)methyl]-4-fluoro-1-[2-(1H-1,2,3-triazol-5-yl)acetyl]pyrrolidine-2-carboxamide], the IC50 is 554 nM in experiment [1], 14000 nM in experiment [2] and > 100000 nM in experiment [3].

Regarding `CCC(C)c1ccc(C(NC(=O)[C@@H]2C[C@@H](F)CN2C(=O)Cc2cnn[nH]2)c2ccccc2)cc1F` (single isomer, unassigned) [Compound 677, (2S,4R)-N-[(S) or (R)-{4-[(2R) or (2S)-butan-2-yl]-3-fluorophenyl} (phenyl)methyl]-4-fluoro-1-[2-(1H-1,2,3-triazol-5-yl)acetyl]pyrrolidine-2-carboxamide], the IC50 in experiment [1] was 51 nM; in experiment [2] it was 990 nM; in experiment [3] it was > 100000 nM.

Turning to `Cc1cc(C(NC(=O)[C@@H]2C[C@@H](F)CN2C(=O)Cc2cnn[nH]2)c2ccccc2)cc(F)c1C(C)C` (single isomer, unassigned) [Compound 680, (2S,4R)-4-fluoro-N-[(S) or (R)-[3-fluoro-5-methyl-4-(propan-2-yl)phenyl](phenyl)methyl]-1-[2-(1H-1,2,3-triazol-5-yl)acetyl]pyrrolidine-2-carboxamide], the figures for the IC50 in experiment [1], in experiment [2] and in experiment [3] were 15 nM, 270 nM and 93000 nM, respectively.

In the case of `Cc1nnn(CC(=O)N2C[C@H](F)C[C@H]2C(=O)NC(c2ccccc2)c2cc(C)c(C3CC3)c(F)c2)n1` (single isomer, unassigned) [Compound 682, (2S,4R)-N-[(S) or (R)-(4-cyclopropyl-3-fluoro-5-methylphenyl) (phenyl)methyl]-4-fluoro-1-[2-(5-methyl-2H-1,2,3,4-tetrazol-2-yl)acetyl]pyrrolidine-2-carboxamide], the IC50 in experiment [1] is 116 nM; in experiment [2] (Homo sapiens, HeLa, 24 h), 2090 nM; in experiment [3] it was > 100000 nM.

With `CC(=O)N1C[C@H](F)C[C@H]1C(=O)NC(c1cccc(-c2ccn[nH]2)c1)c1ccc(C(C)C)c(F)n1` (single isomer, unassigned) [Compound 690, (2S,4R)-1-acetyl-4-fluoro-N-[(S) or (R)-[6-fluoro-5-(propan-2-yl)pyridin-2-yl][3-(1H-pyrazol-5-yl)phenyl]methyl] pyrrolidine-2-carboxamide], the IC50 in experiment [1] was 47 nM; in experiment [2] (Homo sapiens, HeLa, 24 h) it was 900 nM; in experiment [3] it was > 100000 nM.

On to `CC(C)c1ccc([C@@H](NC(=O)[C@@H]2C[C@@H](F)CN2C(=O)C(C)n2cnnn2)c2ccccc2)cc1F` (single isomer, unassigned) [Compound 766, (2S,4R)-4-fluoro-N-[(S)-[3-fluoro-4-(propan-2-yl)phenyl](phenyl)methyl]-1-[(2R) or (2S)-2-(1H-1,2,3,4-tetrazol-1-yl)propanoyl]pyrrolidine-2-carboxamide], for which the IC50 in experiment [1] is 38 nM; in experiment [2] (Homo sapiens, HeLa, 24 h) it was 350 nM; in experiment [3] it was > 100000 nM.

For the compound `CC(C)c1ccc([C@@H](NC(=O)[C@@H]2C[C@@H](F)CN2C(=O)C(C)n2ccnc2)c2ccccc2)cc1F` (single isomer, unassigned) [Compound 768, (2S,4R)-4-fluoro-N-[(S)-[3-fluoro-4-(propan-2-yl)phenyl](phenyl)methyl]-1-[(2R) or (2S)-2-(1H-imidazol-1-yl)propanoyl]pyrrolidine-2-carboxamide], the IC50 is 121 nM in experiment [1], 1230 nM in experiment [2] and > 100000 nM in experiment [3].
